Results as given in US10479795B2 (Incyte Corporation, priority 2016, dated 2019).
Structures can show the parent of a compound that is named as a salt. Where two headings read alike, the source gives them in different places.

Key:
[1] = tested on: Phosphorylated Ribosomal Protein S6 (RPS6); experiment: THP-1 RPS6 ELISA Assay; format: cell-based, Human; conditions: THP-1 cells, read-out: PI3Kγ_THP1_RPS6_ELISA IC50
Procedure, shortened: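 IC50 values come from a curve of percent inhibition against log compound concentration, using phospho-RPS6 ELISA (450 nm) on THP-1 lysates. Cells were serum-starved overnight, exposed to compound for 2 h at 37 °C, then challenged 15 min with 10 nM MCP-1.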

[2] = target: PI3Kγ (p110γ) Recombinant Human Protein (Homo sapiens (Human), UniProt P48736); experiment: PI3K-γ Scintillation Proximity Assay; format: biochemical; conditions: read-out: PI3Kγ IC50
Procedure, shortened: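 Radiometric SPA readout: […] bound to WGA beads after overnight shaking, IC50 derived from % activity of DMSO control. Reaction used human p110γ, 2 μM ATP, 20 μM PIP2, pH 6.7 MOPS buffer with MgCl2, DTT, CHAPS, 2% DMSO, room temperature.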

[3] = target: PI3Kδ (p110δ/p85α) Recombinant Human Protein (Homo sapiens (Human), UniProt O00329); experiment: PI3Kδ Scintillation Proximity Assay; format: biochemical
Procedure, shortened: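 IC50 was fitted to percent solvent-control activity from SPA scintillation counts after WGA bead capture of 33P-labelled lipid product. Reaction: 120 min, room temperature, 3.4 nM p110δ/p85α, 20 μM PIP2, 2 μM ATP with tracer, MOPS pH 6.7 buffer containing MgCl2, DTT, CHAPS, 2% DMSO.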

Chain of PI3Kδ (p110δ/p85α) Recombinant Human Protein (O00329 whole entry): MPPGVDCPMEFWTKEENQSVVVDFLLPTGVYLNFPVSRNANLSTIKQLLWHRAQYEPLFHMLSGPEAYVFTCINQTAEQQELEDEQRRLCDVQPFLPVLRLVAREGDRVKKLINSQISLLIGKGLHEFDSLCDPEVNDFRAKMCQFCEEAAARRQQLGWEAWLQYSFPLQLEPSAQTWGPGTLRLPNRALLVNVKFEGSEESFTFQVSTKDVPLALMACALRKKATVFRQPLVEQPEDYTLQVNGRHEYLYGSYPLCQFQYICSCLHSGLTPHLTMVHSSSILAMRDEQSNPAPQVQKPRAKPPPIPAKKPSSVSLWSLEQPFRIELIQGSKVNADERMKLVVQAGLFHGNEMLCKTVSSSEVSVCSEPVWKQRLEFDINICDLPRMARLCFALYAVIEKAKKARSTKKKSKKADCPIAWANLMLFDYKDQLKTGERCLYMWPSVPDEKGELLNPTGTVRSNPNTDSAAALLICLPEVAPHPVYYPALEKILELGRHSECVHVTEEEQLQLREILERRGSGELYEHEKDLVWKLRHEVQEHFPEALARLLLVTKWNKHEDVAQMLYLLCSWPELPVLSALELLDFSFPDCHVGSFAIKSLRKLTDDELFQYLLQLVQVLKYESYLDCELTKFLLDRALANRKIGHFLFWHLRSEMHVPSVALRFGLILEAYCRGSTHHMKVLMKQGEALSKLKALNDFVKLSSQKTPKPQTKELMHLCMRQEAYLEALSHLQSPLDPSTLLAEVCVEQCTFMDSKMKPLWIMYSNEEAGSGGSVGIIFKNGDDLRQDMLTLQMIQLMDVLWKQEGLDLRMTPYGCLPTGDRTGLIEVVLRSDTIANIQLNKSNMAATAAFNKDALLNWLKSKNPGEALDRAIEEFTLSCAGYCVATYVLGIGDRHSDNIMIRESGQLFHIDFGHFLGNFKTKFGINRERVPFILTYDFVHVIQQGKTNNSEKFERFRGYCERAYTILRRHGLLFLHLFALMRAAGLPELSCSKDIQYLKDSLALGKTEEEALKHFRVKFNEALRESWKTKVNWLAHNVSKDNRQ
Chain of PI3Kδ (p110δ/p85α) Recombinant Human Protein (P27986 whole entry partner): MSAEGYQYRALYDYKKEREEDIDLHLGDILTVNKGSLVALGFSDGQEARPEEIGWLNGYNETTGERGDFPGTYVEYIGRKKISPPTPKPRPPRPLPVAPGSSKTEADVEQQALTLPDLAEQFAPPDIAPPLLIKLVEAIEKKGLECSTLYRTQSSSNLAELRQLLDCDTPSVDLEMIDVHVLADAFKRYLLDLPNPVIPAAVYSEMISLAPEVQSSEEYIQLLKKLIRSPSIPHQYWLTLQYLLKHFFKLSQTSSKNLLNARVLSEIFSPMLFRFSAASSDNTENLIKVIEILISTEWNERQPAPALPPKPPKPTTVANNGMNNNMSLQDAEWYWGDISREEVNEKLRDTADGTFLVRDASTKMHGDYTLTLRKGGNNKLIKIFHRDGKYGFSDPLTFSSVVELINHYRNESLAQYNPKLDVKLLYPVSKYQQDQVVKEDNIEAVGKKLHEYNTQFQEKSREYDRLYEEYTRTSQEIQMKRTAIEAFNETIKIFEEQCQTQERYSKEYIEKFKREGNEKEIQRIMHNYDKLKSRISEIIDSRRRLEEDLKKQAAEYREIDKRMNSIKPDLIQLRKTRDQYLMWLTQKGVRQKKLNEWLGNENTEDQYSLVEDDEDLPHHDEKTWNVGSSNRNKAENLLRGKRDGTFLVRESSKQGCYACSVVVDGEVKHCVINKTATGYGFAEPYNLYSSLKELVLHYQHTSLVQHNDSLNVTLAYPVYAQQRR
Chain of PI3Kγ (p110γ) Recombinant Human Protein (P48736 whole entry): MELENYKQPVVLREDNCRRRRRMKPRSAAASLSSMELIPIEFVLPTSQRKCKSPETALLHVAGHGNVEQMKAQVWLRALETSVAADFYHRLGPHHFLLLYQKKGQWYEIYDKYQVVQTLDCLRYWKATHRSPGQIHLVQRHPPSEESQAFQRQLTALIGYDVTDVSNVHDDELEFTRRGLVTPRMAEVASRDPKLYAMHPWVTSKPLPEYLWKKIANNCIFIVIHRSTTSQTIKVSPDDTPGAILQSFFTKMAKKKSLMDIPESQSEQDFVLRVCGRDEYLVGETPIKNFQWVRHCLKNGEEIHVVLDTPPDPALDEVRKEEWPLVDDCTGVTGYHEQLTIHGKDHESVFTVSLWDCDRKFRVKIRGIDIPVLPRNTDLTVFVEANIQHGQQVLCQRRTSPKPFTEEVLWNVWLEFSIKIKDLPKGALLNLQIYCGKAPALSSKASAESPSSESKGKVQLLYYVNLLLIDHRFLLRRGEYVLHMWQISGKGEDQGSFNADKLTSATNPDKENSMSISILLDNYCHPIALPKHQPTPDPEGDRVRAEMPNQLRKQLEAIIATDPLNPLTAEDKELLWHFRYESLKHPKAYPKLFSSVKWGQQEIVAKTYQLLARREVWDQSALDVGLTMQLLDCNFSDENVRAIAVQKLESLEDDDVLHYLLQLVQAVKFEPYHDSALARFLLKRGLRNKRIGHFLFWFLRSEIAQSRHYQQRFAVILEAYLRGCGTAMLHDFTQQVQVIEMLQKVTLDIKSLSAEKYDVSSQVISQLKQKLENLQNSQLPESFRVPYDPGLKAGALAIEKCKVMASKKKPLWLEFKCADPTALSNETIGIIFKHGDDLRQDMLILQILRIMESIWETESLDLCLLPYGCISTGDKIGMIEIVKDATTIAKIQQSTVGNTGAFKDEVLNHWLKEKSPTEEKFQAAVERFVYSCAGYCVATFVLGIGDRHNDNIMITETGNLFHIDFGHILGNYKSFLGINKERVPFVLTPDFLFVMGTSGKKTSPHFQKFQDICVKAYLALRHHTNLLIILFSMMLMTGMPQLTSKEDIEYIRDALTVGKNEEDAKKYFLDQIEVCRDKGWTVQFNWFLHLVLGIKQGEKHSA

| SMILES | IC50 ([1]; Homo sapiens) | IC50 [2] | IC50 [3] | IC50 [1] |
| --- | --- | --- | --- | --- |
| Cc1ccc(S(=O)(=O)NC23CCC(c4nccn4C)(CC2)OC3)cc1-c1cnc2c(N)ncnn12 [Example 439, 3-(4-Aminoimidazo[1,2-f][1,2,4]triazin-7-yl)-4-methyl-N-(1-(1-methyl-1H-imidazol-2-yl)-2-oxabicyclo[2.2.2]octan-4-yl)benzenesulfonamide trifluoroacetate salt] | 500 to 1000 nM | < 100 nM | 500 to 2000 nM | – |
| Cc1ccc(S(=O)(=O)NC23CCC(C#N)(C2)C3)cc1-c1cnc2c(N)nc(C(F)(F)F)cn12 [Example 281, 3-(8-Amino-6-(trifluoromethyl)imidazo[1,2-a]pyrazin-3-yl)-N-(4-cyanobicyclo[2.1.1]hexan-1-yl)-4-methylbenzenesulfonamide trifluoroacetate salt] | 100 to 500 nM | < 100 nM | 100 to 500 nM | – |
| Cc1ccc(S(=O)(=O)NC23CC(C(F)F)(C2)C3)cc1-c1cnc2c(N)nc(C(F)(F)F)nn12 [Example 339, 3-(4-Amino-2-(trifluoromethyl)imidazo[1,2-f][1,2,4]triazin-7-yl)-N-(3-(difluoromethyl)bicyclo[1.1.1]pentan-1-yl)-4-methylbenzenesulfonamide trifluoroacetate salt] | – | < 100 nM | 100 to 500 nM | 100 to 500 nM |
| CC(=O)NC1CCN(S(=O)(=O)c2ccc(C)c(-c3cnc4c(N)ncnn34)c2)C1 (stereo not drawn) [Example 199, N-(1-((3-(4-Aminoimidazo[2,1-f][1,2,4]triazin-7-yl)-4-methylphenyl)sulfonyl)pyrrolidin-3-yl)acetamide] | 500 to 1000 nM | < 100 nM | 500 to 2000 nM | – |
| Cc1ccc(S(=O)(=O)NC23CC(F)(C2)C3)cc1-c1cnc2c(N)ncnn12 [Example 98, 3-(4-Aminoimidazo[1,2-f][1,2,4]triazin-7-yl)-N-(3-fluorobicyclo[1.1.1]pentan-1-yl)-4-methylbenzenesulfonamide trifluoroacetate salt] | – | < 100 nM | 500 to 2000 nM | 100 to 500 nM |
| Cc1ccc(S(=O)(=O)N2CCC3(CCO3)C2)cc1-c1cnc2c(N)ncnn12 (stereo not drawn) [Example 205, 7-(5-((1-Oxa-6-azaspiro[3.4]octan-6-yl)sulfonyl)-2-methylphenyl)imidazo[2,1-f][1,2,4]triazin-4-amine] | > 1000 nM | < 100 nM | 500 to 2000 nM | – |
| Cc1ccc(S(=O)(=O)N2C[C@H](N)C[C@H](C(F)(F)F)C2)cc1-c1cnc2c(N)nc(C(F)(F)F)cn12 [Example 307, 3-(5-(((3R,5S)-3-amino-5-(trifluoromethyl)piperidin-1-yl)sulfonyl)-2-methylphenyl)-6-(trifluoromethyl)imidazo[1,2-a]pyrazin-8-amine] | 100 to 500 nM | < 100 nM | < 100 nM | – |
| Cc1ccc(S(=O)(=O)N2CC(O)(C3CC3)C2)cc1-c1cnc2c(N)ncnn12 [Example 144, 1-((3-(4-aminoimidazo[2,1-f][1,2,4]triazin-7-yl)-4-methylphenyl)sulfonyl)-3-cyclopropylazetidin-3-ol, TFA] | – | < 100 nM | 100 to 500 nM | 500 to 1000 nM |
| Cc1ccc(S(=O)(=O)N2CCC3(CCCO3)CC2)cc1-c1cnc2c(N)ncnn12 [Example 194, 7-(5-((1-Oxa-8-azaspiro[4.5]decan-8-yl)sulfonyl)-2-methylphenyl)imidazo[2,1-f][1,2,4]triazin-4-amine] | 100 to 500 nM | < 100 nM | 500 to 2000 nM | – |
| Cc1ccc(S(=O)(=O)NC23CC(C(=O)O)(C2)C3)cc1-c1cnc2c(N)nc(C(F)(F)F)cn12 [Example 290, 3-(3-(8-Amino-6-(trifluoromethyl)imidazo[1,2-a]pyrazin-3-yl)-4-methylphenylsulfonamido)bicyclo[1.1.1]pentane-1-carboxylic acid trifluoroacetate salt] | > 1000 nM | < 100 nM | 500 to 2000 nM | – |

Second part, the compound after the results:

| IC50 ([1]; Homo sapiens) | IC50 [2] | IC50 [3] | IC50 [1] | SMILES |
| --- | --- | --- | --- | --- |
| – | < 100 nM | 100 to 500 nM | < 100 nM | Cc1nc(N)c2ncc(-c3cc(S(=O)(=O)NC45CC(C#N)(C4)C5)ccc3C)n2n1 [Example 270, 3-(4-Amino-2-methylimidazo[1,2-f][1,2,4]triazin-7-yl)-N-(3-cyanobicyclo[1.1.1]pentan-1-yl)-4-methylbenzenesulfonamide trifluoroacetate salt] |
| 100 to 500 nM | < 100 nM | 100 to 500 nM | – | Cc1ccccc1-c1cn2c(-c3cc(S(=O)(=O)N[C@H]4CC[C@H](O)CC4)ccc3C)cnc2c(N)n1 [Example 17, 3-[8-Amino-6-(2-methylphenyl)imidazo[1,2-a]pyrazin-3-yl]-N-(trans-4-hydroxycyclohexyl)-4-methylbenzenesulfonamide] |
| 100 to 500 nM | < 100 nM | < 100 nM | – | Cc1nc(N)c2ncc(-c3cc(S(=O)(=O)NC45CCC(O)(CC4)C5)ccc3C)n2n1 [Example 443, 3-(4-Amino-2-methylimidazo[1,2-f][1,2,4]triazin-7-yl)-N-(4-hydroxybicyclo[2.2.1]heptan-1-yl)-4-methylbenzenesulfonamide trifluoroacetate salt] |
| < 100 nM | < 100 nM | 100 to 500 nM | – | Cc1ccc(S(=O)(=O)NC23CCC(CO)(C2)C3)cc1-c1cnc2c(N)nc(C3CC3)nn12 [Example 259, 3-(4-Amino-2-cyclopropylimidazo[2,1-f][1,2,4]triazin-7-yl)-N-(4-(hydroxymethyl)bicyclo[2.1.1]hexan-1-yl)-4-methylbenzenesulfonamide trifluoroacetate salt] |
| 100 to 500 nM | < 100 nM | 100 to 500 nM | – | Cc1ccc(S(=O)(=O)N2CCCC(C#N)C2)cc1-c1cnc2c(N)nc(C(F)(F)F)cn12 (stereo not drawn) [Example 314, 1-((3-(8-Amino-6-(trifluoromethyl)imidazo[1,2-a]pyrazin-3-yl)-4-methylphenyl)sulfonyl)piperidine-3-carbonitrile] |
| < 100 nM | < 100 nM | < 100 nM | – | CNc1nc(-c2ccccc2F)cn2c(-c3cc(S(=O)(=O)N[C@H]4CC[C@H](O)CC4)ccc3C)cnc12 [Example 36, 3-[6-(2-Fluorophenyl)-8-(methylamino)imidazo[1,2-a]pyrazin-3-yl]-N-(trans-4-hydroxycyclohexyl)-4-methylbenzenesulfonamide trifluoroacetate] |
| – | < 100 nM | 500 to 2000 nM | > 1000 nM | CC(=O)N1CC(NS(=O)(=O)c2ccc(C)c(-c3cnc4c(N)ncnn34)c2)C1 [Example 103, N-(1-Acetylazetidin-3-yl)-3-(4-aminoimidazo[1,2-f][1,2,4]triazin-7-yl)-4-methylbenzenesulfonamide trifluoroacetate salt] |
| 500 to 1000 nM | < 100 nM | 500 to 2000 nM | – | [2H]C([2H])([2H])c1ccc(S(=O)(=O)NC23CCC(O)(C2)C3)cc1-c1cnc2c(N)ncnn12 [Example 374, 3-(4-Aminoimidazo[2,1-f][1,2,4]triazin-7-yl)-N-(4-hydroxybicyclo[2.1.1]hexan-1-yl)-4-(methyl-d3)benzenesulfonamide] |
| 100 to 500 nM | < 100 nM | 100 to 500 nM | – | Cc1ccc(S(=O)(=O)N2CCCC(C)(CO)C2)cc1-c1cnc2c(N)nc(C(F)(F)F)cn12 (stereo not drawn) [Example 312, (1-((3-(8-Amino-6-(trifluoromethyl)imidazo[1,2-a]pyrazin-3-yl)-4-methylphenyl)sulfonyl)-3-methylpiperidin-3-yl)methanol] |
| < 100 nM | < 100 nM | 100 to 500 nM | – | Cc1ccc(-c2cn3c(-c4cc(S(=O)(=O)N[C@H]5CC[C@H](O)CC5)ccc4C)cnc3c(N)n2)cc1 [Example 18, 3-[8-Amino-6-(4-methylphenyl)imidazo[1,2-a]pyrazin-3-yl]-N-(trans-4-hydroxycyclohexyl)-4-methylbenzenesulfonamide] |
| 100 to 500 nM | < 100 nM | 100 to 500 nM | – | Cc1ccc(S(=O)(=O)N[C@H]2CC[C@H](O)CC2)cc1-c1cnc2c(N)nc(-c3cc(C(F)(F)F)nn3C)cn12 [Example 80, 3-{8-Amino-6-[1-methyl-3-(trifluoromethyl)-1H-pyrazol-5-yl]imidazo[1,2-a]pyrazin-3-yl}-N-(trans-4-hydroxycyclohexyl)-4-methylbenzenesulfonamide] |
| 500 to 1000 nM | < 100 nM | 100 to 500 nM | – | Nc1nc(C(F)(F)F)cn2c(-c3ccc(F)c(S(=O)(=O)NC45CCC(CO)(C4)C5)c3)cnc12 [Example 398, 5-(8-Amino-6-(trifluoromethyl)imidazo[1,2-a]pyrazin-3-yl)-2-fluoro-N-(4-(hydroxymethyl)bicyclo[2.1.1]hexan-1-yl)benzenesulfonamide trifluoroacetate salt] |
| 100 to 500 nM | < 100 nM | 100 to 500 nM | – | Cc1ccc(S(=O)(=O)N2CC3NCC2C3O)cc1-c1cnc2c(N)nc(C(F)(F)F)nn12 (stereo not drawn) [Example 355, 2-((3-(4-amino-2-(trifluoromethyl)imidazo[2,1-f][1,2,4]triazin-7-yl)-4-methylphenyl)sulfonyl)-2,5-diazabicyclo[2.2.1]heptan-7-ol] |
